Results as given in patent US6127392A, “Anthranilic acid analogs” (American Home Products Corporation, priority 1998, dated 2000).

Assays:
[1] = tested on: Isolated Rat Bladder Strips; test: Inhibition of contractions in isolated rat bladder strips; type: cell-based
Method: Sprague-Dawley rats (150-200 g) are rendered unconscious by CO2 asphyxiation and then euthanized by cervical dislocation. […] The bladder is opened and then cut into strips 1-2 mm in width and 7-10 mm in length. The strips are subsequently suspended in a 10 mL tissue bath under an initial resting tension of 1.5 g. The strips are held in place by two surgical clips one of which is attached to a fixed hook while the other is attached to an isometric force transducer. […] The carbachol is then washed out and the tissue allowed to relax to its resting level of activity. Following a further 30 min period of recovery an additional 15 mM KCl are introduced into the tissue bath. […] Following stabilization of this enhanced level of contractile activity, incremental increases in the concentration of test compound or vehicle are introduced into the tissue bath. Contractile activity is measured for each compound or vehicle concentration during the last minute of a 30 minute challenge.

[2] = tested on: swelling induced chloride channel current; test: Chloride channel blockade, swelling induced chloride current in bladder cells; type: cell-based, guinea pig
Description: Normal human bronchial epithelial cells (NHBE) were commercially available from Clonetics Corporation (San Diego, Calif.) and bladder cells were isolated from rat bladder.
The normal external solution contained (in mM): N-methyl d-Glucamine chloride (NMDGCl). 140, MgCl2 2, CaCl2 2 and 4-(2-hydroxyethyl)-1-piperazine ethanesulfonic acid (HEPES) 10. The normal pipette solution contained (in mM): NMDGCI. 125, HEPES 10, MgCl2 2, ethylenebis(oxonitrilo)tetraacetate (EGTA) 2, and ATPMg 5, the pH adjusted to 7.3 with TRIS. To identify the leak conductance from depolarization, internal Cl ion concentration was reduced to 40 mM using glutamic acid (ECl approximately -31 mV according Nernst equation). The osmolarity for standard external solution was about 280 mOsm. […]
The whole cell voltage clamp recording techniques were utilized to record membrane ionic currents. […] Membrane currents were recorded using an Axopatch 200A Patch Clamp Amplifier (Axon Instruments, Inc., Foster City, Calif.). […]
A: current traces from -100 to 60 mV were recorded in the isotonic, low osmolarity (210 mOsm) and after application of 20 μM Example 1 in same cell. […] Panel B is four superimposed ramp test traces recorded in the presence of control, hypotonic, Example 1 and washout solutions. The C panel depicts the time course of the effect of Example 1 on ICl,swelling at 60 mV monitored from the same cell.

[3] = target: T1, calcium-dependent large conductance potassium channels (maxi K^+) (Rattus norvegicus, UniProt Q62976); test: Potassium channel activation, whole cell patch clamp in isolated rat detrusor cells; type: cell-based
T1 construct: Rat detrusor cells were isolated in a manner previously described for guinea-pig detrusor; from tissue; host or cells: freshly isolated detrusor smooth muscle cells from urinary bladder dome of male Sprague-Dawley rats (endogenous channel)
T1 sequence (Q62976 whole entry): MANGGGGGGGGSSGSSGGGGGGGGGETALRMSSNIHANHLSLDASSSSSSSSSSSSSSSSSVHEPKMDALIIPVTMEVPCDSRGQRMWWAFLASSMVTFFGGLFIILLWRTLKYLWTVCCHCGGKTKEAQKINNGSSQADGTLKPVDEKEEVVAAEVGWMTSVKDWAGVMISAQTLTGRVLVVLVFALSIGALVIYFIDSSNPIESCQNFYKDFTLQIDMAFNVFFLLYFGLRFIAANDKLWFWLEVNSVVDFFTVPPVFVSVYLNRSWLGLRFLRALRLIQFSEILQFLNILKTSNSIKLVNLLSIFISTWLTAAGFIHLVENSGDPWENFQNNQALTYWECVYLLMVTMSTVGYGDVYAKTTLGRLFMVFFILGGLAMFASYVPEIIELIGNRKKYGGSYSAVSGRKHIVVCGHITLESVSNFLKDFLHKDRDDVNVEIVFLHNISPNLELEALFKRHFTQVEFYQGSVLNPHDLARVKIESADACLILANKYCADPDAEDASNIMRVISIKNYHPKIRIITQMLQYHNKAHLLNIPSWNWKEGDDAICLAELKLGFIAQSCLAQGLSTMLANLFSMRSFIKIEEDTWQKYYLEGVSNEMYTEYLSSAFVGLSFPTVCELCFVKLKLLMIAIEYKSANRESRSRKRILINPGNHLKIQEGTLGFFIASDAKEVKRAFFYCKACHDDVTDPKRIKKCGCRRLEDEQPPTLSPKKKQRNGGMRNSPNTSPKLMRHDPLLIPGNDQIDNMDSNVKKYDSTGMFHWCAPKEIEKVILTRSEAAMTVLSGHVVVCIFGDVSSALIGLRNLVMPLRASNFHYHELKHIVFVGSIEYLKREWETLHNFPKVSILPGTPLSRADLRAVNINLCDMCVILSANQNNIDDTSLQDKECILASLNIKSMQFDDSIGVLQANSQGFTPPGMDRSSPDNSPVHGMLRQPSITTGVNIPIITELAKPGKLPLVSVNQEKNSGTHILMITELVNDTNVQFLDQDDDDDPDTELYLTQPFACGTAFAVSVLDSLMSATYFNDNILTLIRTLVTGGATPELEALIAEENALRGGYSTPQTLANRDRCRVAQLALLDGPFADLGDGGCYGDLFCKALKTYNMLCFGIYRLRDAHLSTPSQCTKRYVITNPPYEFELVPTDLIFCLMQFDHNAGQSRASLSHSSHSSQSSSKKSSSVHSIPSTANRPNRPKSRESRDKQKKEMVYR
Method: Potassium channel activation by compounds of the present invention was established by examining the effect of the compound of Example 1 on calcium-dependent large conductance potassium channels (maxi K^+) as follows:
Rat detrusor cells were isolated in a manner previously described for guinea-pig detrusor (Sheldon and Argentieri, 1995). Male Sprage-Dawley rats (200-400 grams) were euthanized by CO2 inhalation and exsanguination. Their urinary bladders were rapidly removed and placed in 37° C. physiological solution with the following composition (mM): Na glutamate (80.0), NaCl (54.7), KCl (5.0), NaHCO3 (25.0), MgCl2.2H2 O (2.5), D-glucose (11.8) and CaCl2 (0.2) gassed with […], 95%/5% for a final pH of 7.4. The dome of the bladder was isolated from the trigon region and the mucosa was removed. This tissue was then cut into 2-3 mm wide strips and placed in fresh buffer for 1 hour. Tissues were then transferred into 10.0 ml of an isolation buffer containing the above composition plus collagenase type VIII (1.0 mg/ml) and pronase (0.25 mg/ml). After 10 minutes the isolation buffer was replaced with fresh isolation buffer for an additional 10 min. […]
Whole cell recordings were made using broken patch assess. […] After stability was achieved control currents were recorded. […] Currents were recorded for 5 to 10 minutes or until compound effects reached steady state. […]

## C/C(=C\c1ccc(C(F)(F)F)cc1)C(=O)Nc1ccccc1C(=O)O [1, Step 4]
[1]; aorta/bladder IC50 ratio, selectivity
  IC50 (A)/IC50 (B): 39.6

## C/C(=C\c1ccc(C(F)(F)F)cc1)C(=O)Nc1ccccc1C(=O)[O-].[Li+] [Example 1, Step 4, (E)-2-[2-Methyl-3-(4-trifluoromethyl-phenyl)-acryloylamino]-benzoic acid lithium salt]
[2]; 20 μM, guinea pig bladder cell, low osmolarity 210 mOsm
  effect on swelling induced chloride current: significantly reduced swelling induced chloride current
[2]; Cavia porcellus, Bladder, Swelling ICl, 60 mV, 210 mOsm
  inhibition at 20 µM: 67%
[3]; 10 μM in superfusate, isolated rat bladder cells
  effect on outward current (maxi K^+ current): increase in outward current that was reversible upon washout

## COc1ccc(/C=C/C(=O)Nc2ccccc2C(=O)O)cc1OC [Tranilast, reference compound]
[1]; bladder/aorta IC50 ratios, Table 1
  smooth muscle relaxant potency and bladder selectivity: not to be a potent or bladder selective smooth muscle relaxant

## COc1ccc(Cl)cc1C(=O)NCCc1ccc(S(=O)(=O)NC(=O)NC2CCCCC2)cc1 [glyburide, reference compound]
[3]; glyburide 5 μM added to the superfusate
  effect of glyburide on outward current: no effect
